# Data: patent US8299114B2, “Bicyclic derivatives of azabicyclic carboxamides, preparation thereof and therapeutic use thereof” (priority 2008, dated 2012)
# Assays:
# TRPV1 receptors = target: T1, TRPV1 receptors (Mus musculus, UniProt Q704Y3); assay: Pain induced by intraplantar administration of capsaicin to mice; assay type: in vivo; settings: 10 mg/kg orally 120 minutes before intraplantar capsaicin, n=10, timed over 2 minutes
# T1 construct: from tissue; host or cells: live mice, hind leg (in vivo)
# T1 sequence (Q704Y3 whole entry): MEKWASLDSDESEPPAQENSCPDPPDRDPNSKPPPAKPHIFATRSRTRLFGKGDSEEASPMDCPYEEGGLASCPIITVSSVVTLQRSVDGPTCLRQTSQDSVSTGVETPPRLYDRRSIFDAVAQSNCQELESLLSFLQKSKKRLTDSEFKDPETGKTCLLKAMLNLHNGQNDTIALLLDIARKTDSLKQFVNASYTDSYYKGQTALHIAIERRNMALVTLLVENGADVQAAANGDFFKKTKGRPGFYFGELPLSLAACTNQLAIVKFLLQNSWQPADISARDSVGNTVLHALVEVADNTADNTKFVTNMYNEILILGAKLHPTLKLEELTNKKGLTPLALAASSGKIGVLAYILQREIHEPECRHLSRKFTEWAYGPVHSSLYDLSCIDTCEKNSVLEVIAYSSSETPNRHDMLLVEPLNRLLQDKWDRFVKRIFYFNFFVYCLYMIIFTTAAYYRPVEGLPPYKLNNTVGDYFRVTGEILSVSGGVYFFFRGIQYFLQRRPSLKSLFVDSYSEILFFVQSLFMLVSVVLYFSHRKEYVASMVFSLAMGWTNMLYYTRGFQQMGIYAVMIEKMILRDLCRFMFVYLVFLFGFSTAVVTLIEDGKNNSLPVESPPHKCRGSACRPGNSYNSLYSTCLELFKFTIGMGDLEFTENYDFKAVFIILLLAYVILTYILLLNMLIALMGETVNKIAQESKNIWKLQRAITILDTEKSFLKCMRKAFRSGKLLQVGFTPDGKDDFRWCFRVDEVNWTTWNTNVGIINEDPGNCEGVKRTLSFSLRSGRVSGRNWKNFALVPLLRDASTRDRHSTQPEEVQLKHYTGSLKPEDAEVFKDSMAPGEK
# Description: Pain Induced by Intraplantar Administration of Capsaicin to Mice. The intraplantar injection of capsaicin to mice rapidly produces short-lived nociceptive behaviour, which is reflected by licking, biting and flexing of the administered leg. […] Methodology: (E)-Capsaicin is initially diluted to 3 mg/ml in DMSO, and then diluted again for its final use to 1.5 μg/20 μl in physiological saline. […] The capsaicin is injected into the hind legs of the animal, on the upper face. The test compounds are administered orally 120 minutes before the injection of capsaicin. Two hours after administration of the compounds, the mice are placed in a glass beaker. The nociceptive behaviour of the animals is then assessed immediately by the experimenter, and the duration of the capsaicin-induced behavioural manifestations is timed over a period of 2 minutes (licking and biting, total or partial flexure of the injected leg). For each compound, an inhibition corresponding to the mean of the capsaicin-induced nociceptive responses, in response to a dose of test product (expressed in mg/kg) administered orally to a sample of a given number (n) of mice, is determined.
# TRPV1 receptor = target: T2, TRPV1 receptor (Rattus norvegicus, UniProt O35433); assay: Inhibition of the current induced with capsaicin on rat DRGs (whole-cell patch-clamp); assay type: cell-based; settings: inhibition of control capsaicin response, newborn rat DRG neurones
# T2 construct: DRG neurones naturally express the TRPV1 receptor; endogenous in cells; host or cells: primary culture of newborn rat dorsal root ganglion neurones
# T2 sequence (O35433 whole entry): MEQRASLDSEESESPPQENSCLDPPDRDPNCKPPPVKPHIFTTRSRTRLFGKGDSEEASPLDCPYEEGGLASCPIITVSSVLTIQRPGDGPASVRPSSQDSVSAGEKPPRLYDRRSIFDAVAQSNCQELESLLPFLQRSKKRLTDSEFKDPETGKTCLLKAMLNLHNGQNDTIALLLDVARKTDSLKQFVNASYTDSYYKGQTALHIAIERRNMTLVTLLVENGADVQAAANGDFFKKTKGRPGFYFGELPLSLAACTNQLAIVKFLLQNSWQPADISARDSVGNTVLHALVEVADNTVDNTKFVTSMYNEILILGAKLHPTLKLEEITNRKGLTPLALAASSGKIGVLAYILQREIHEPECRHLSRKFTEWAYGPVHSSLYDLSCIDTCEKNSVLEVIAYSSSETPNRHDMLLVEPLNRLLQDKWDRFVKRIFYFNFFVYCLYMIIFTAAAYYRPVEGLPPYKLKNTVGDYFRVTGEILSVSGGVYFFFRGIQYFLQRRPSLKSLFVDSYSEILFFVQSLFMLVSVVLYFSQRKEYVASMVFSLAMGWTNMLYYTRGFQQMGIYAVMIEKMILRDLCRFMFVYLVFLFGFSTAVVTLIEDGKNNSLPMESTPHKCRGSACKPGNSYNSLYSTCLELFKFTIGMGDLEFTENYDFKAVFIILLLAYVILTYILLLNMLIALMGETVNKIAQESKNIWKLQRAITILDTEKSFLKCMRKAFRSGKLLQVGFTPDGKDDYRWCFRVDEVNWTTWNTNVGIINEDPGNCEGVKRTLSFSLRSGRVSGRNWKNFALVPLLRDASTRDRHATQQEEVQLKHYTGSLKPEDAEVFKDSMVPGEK
# Description: Test of Inhibition of the Current Induced with Capsaicin on Rat DRGs
# • Primary culture of rat dorsal root ganglion (DRG) cells:
# DRG neurones naturally express the TRPV1 receptor.
# The primary cultures of newborn rat DRGs are prepared using 1-day-old rats. Briefly, after dissection, the ganglions are trypsinized and the cells dissociated by mechanical trituration. The cells are resuspended in an Eagle basal culture medium containing 10% foetal calf serum, 25 mM KCl, 2 mM glutamine, 100 μg/ml gentamicin and 50 ng/ml of NGF, and then deposited on glass slides coated with laminin (0.25×10^6 cells per slide), which are then placed in Corning 12-well dishes. The cells are incubated at 37° C. in a humidified atmosphere containing 5% CO2 and 95% air. […]
# The measuring chambers (volume 800 μl) containing the cell preparation are placed on the platform of an inverted microscope (Olympus IMT2) equipped with Hoffman optics (Modulation Contrast, New York) and observed at a magnification of 400×. […] The overall currents (membrane potential set at −60 mV) are recorded with an Axopatch 1D amplifier (Axon Instruments, Foster City, Calif.), connected to a PC running the Pclamp8 software (Axon Instrument). The current plots are recorded on paper and simultaneously digitized (sampling frequency 15 to 25 Hz) and acquired on the hard drive of the PC. […]
% inhibition of the capsaicin-induced nociceptive responses (TRPV1 receptors),inhibition at 0.0001 µM (TRPV1 receptor; 0.1 nM compound) [%],SMILES,melting point [°C],inhibition at 0.1 µM (TRPV1 receptor; 100 nM compound) [%]
37% (±8%),65.5,"O=C(Nc1cnc2sc(CO)nc2c1)c1cc2cc(F)ccc2n1Cc1cccc(F)c1 [Compound 4, N-(2-Hydroxymethylthiazolo[5,4-b]pyrid-6-yl)-5-fluoro-1-[(3-fluorophenyl)methyl]-1H-indole-2-carboxamide]",,
,,"Cc1nc2cc(NC(=O)c3cc4cc(F)ccc4n3Cc3cccc(F)c3)cnc2[nH]1 [Compound 11, N-(2-Methyl-3H-imidazo[4,5-b]pyrid-6-yl)-5-fluoro-1-[(3-fluorophenyl)methyl]-1H-indole-2-carboxamide]",299 to 300,62
